Test results: article PMC7019903 (Viruses, 2020)
Read-outs that look alike come from different tables or passages of the source.

Tests used:
[1] = system: Hantaan (HTNV) (strain 76–118); test: microbe, parasite or virus in culture; format: cell-based, Hantaan virus; conditions: for EC50: read-out: HTNV EC50
[2] = in vitro; conditions: African green monkey
[3] = in vitro; conditions: Mesocricetus auratus (hamster)
[4] = in vitro; conditions: Cercopithecus aethiops (monkey)
[5] = in vitro; conditions: human
[6] = in vitro; conditions: Bos taurus (cattle)
[7] = system: HTNV; format: cell-based, Hantaan virus
[8] = Orthohantavirus hantanense, Vero C1008, 168 h

| SMILES | EC50 [1, 8] [µM] | CC50 [2] [µM] | CC50 [3] [µM] | CC50 [4] [µM] | CC50 [5] [µM] | CC50 [6] [µM] | Selectivity Index [1] | EC50 [1] [µM] | effect on viral titer (result in words) [7] | reduction of viral titer [7] [log10] | melting point [°C] | effect on viral titer (result in words) ([7]; 50 µM) |
| --- | --- | --- | --- | --- | --- | --- | --- | --- | --- | --- | --- | --- |
| O=C(Nc1ccc(-n2nc3cc(Cl)c(Cl)cc3n2)cc1)c1ccc([N+](=O)[O-])cc1 [2h] | > 30 | > 30 | > 100 |  |  |  |  |  |  |  |  |  |
| O=C(Nc1ccc(-n2nc3cc(Cl)c(Cl)cc3n2)cc1)c1ccc(Cl)cc1 [2g] | > 30 | > 30 | > 100 | 95 |  |  |  |  |  |  |  |  |
| CCCNC(=O)Nc1ccc(-n2nc3cc(C)c(C)cc3n2)cc1 [4l] | > 30 | > 30 | > 100 | > 100 | > 100 | > 100 |  |  |  |  |  |  |
| Nc1ccc(-n2nnc3cc(Cl)c(Cl)cc32)cc1 [1a] | > 30 | > 30 | > 100 |  | ≥ 100 |  |  |  |  |  |  |  |
| CCCC(=O)N(C(=O)CCC)c1ccc(-n2nnc3cc(Cl)c(Cl)cc32)cc1 [1e] | > 25 | 25 | 16 |  |  |  |  |  |  |  |  |  |
| CCCNC(=O)Nc1ccc(-n2nc3cc(Cl)c(Cl)cc3n2)cc1 [2l] | ≤ 5 | 30 | 40 |  |  |  | 6 | 5 | significant reduction of viral titer |  |  |  |
| CC(=O)Nc1ccc(-n2nnc3cc(Cl)c(Cl)cc32)cc1 [1b] | > 20 | 20 | 53 |  |  |  |  |  |  |  |  |  |
| Nc1ccc(-n2nc3cc(Cl)c(Cl)cc3n2)cc1 [2a] | > 30 | > 30 | > 100 | ≥ 100 |  |  |  |  |  |  |  |  |
| CCNC(=O)Nc1ccc(-n2nc3ccccc3n2)cc1 [3k] | > 30 | > 30 | > 100 | > 100 |  | > 100 |  |  |  |  |  |  |
| CCCC(=O)N(C(=O)CCC)c1ccc(-n2nc3cc(Cl)c(Cl)cc3n2)cc1 [2e] | > 30 | > 30 | 62 | ≥ 100 |  |  |  |  |  |  |  |  |
| COc1cc(C(=O)Nc2ccc(-n3nc4cc(Cl)c(Cl)cc4n3)cc2)cc(OC)c1OC [2j] | ≤ 5 | > 30 | 35 |  |  |  | > 7.5 | 4 | significant reduction of viral titer | 2.14 |  |  |
| CCCCNC(=O)Nc1ccc(-n2nc3cc(C)c(C)cc3n2)cc1 [4m] | > 30 | > 30 | > 100 | > 100 | > 100 | > 100 |  |  |  |  |  |  |
| CCNC(=O)Nc1ccc(-n2nc3cc(C)c(C)cc3n2)cc1 [4k] | > 30 | > 30 | > 100 | > 100 | > 100 | > 100 |  |  |  |  |  |  |
| Cc1ccc(C(=O)Nc2ccc(-n3nnc4cc(Cl)c(Cl)cc43)cc2)cc1 [1f] | > 30 | > 30 | ≥ 100 |  |  |  |  |  |  |  |  |  |
| Cc1ccc(C(=O)Nc2ccc(-n3nc4cc(C)c(C)cc4n3)cc2)cc1 [4f, N-(4-(5,6-dimethyl-2H-benzo[d][1,2,3]triazol-2-yl)phenyl)-4-methylbenzamide] | > 30 | > 30 | > 100 | > 100 | > 100 | > 100 |  |  |  |  | 295 to 296 |  |
| Cc1ccc(C(=O)Nc2ccc(-n3nc4ccccc4n3)cc2)cc1 [3f, N-(4-(2H-benzo[d][1,2,3]triazol-2-yl)phenyl)-4-methylbenzamide] | > 30 | > 30 | > 100 | > 100 | > 100 | > 100 |  |  |  |  | 266 to 268 |  |
| CC(=O)Nc1ccc(-n2nc3cc(Cl)c(Cl)cc3n2)cc1 [2b] | > 30 | > 30 | > 100 |  |  |  |  |  |  |  |  |  |
| O=C(Nc1ccc(-n2nc3ccccc3n2)cc1)NC1CCCCC1 [3n] | > 30 | > 30 | > 100 | 95 | > 100 | > 100 |  |  |  |  |  |  |

| SMILES | EC50 [1, 8] [µM] | CC50 [2] [µM] | CC50 [3] [µM] | CC50 [4] [µM] | CC50 [5] [µM] | CC50 [6] [µM] | Selectivity Index [1] | EC50 [1] [µM] | effect on viral titer (result in words) [7] | reduction of viral titer [7] [log10] | melting point [°C] | effect on viral titer (result in words) ([7]; 50 µM) |
| --- | --- | --- | --- | --- | --- | --- | --- | --- | --- | --- | --- | --- |
| CCCNC(=O)Nc1ccc(-n2nc3ccccc3n2)cc1 [3l] | > 30 | > 30 | > 100 | > 100 | > 100 | > 100 |  |  |  |  |  |  |
| O=C(Nc1ccc(-n2nnc3cc(Cl)c(Cl)cc32)cc1)c1ccc(Cl)cc1 [1g] | ≥ 30 | > 30 | > 100 | ≥ 100 |  |  |  |  |  |  |  |  |
| NC(=O)c1ncn([C@@H]2O[C@H](CO)[C@@H](O)[C@H]2O)n1 [RBV, Ribavirin, reference compound] | 37 | > 100 |  |  |  |  | > 2 |  |  |  |  | significant decline in viral titer |
| COc1cc(C(=O)Nc2ccc(-n3nc4cc(C)c(C)cc4n3)cc2)cc(OC)c1OC [4j, N-(4-(5,6-dimethyl-2H-benzo[d][1,2,3]triazol-2-yl)phenyl)-3,4,5-trimethoxybenzamide] | > 30 | > 30 | > 100 | > 100 |  | > 100 |  |  |  |  | 272 to 273 |  |
| CCC(=O)Nc1ccc(-n2nc3cc(Cl)c(Cl)cc3n2)cc1 [2c] | > 30 | > 30 | > 100 |  |  |  |  |  |  |  |  |  |
| Cc1cc2nn(-c3ccc(NC(=O)NC4CCCCC4)cc3)nc2cc1C [4n] | > 30 | > 30 | > 100 | 95 | > 100 | > 100 |  |  |  |  |  |  |
| CCNC(=O)Nc1ccc(-n2nc3cc(Cl)c(Cl)cc3n2)cc1 [2k] | 26 | > 30 | > 100 |  |  |  |  |  |  |  |  |  |
| COc1ccc(C(=O)Nc2ccc(-n3nnc4cc(Cl)c(Cl)cc43)cc2)cc1 [1i] | > 30 | > 30 | > 100 |  |  |  |  |  |  |  |  |  |
| CCCCNC(=O)Nc1ccc(-n2nc3ccccc3n2)cc1 [3m] | > 30 | > 30 | > 100 | > 100 | > 100 | > 100 |  |  |  |  |  |  |
| Cc1ccc(C(=O)Nc2ccc(-n3nc4cc(Cl)c(Cl)cc4n3)cc2)cc1 [2f] | 22 | > 30 | > 100 |  |  |  |  |  |  |  |  |  |
| COc1cc(C(=O)Nc2ccc(-n3nc4ccccc4n3)cc2)cc(OC)c1OC [3j, N-(4-(2H-benzo[d][1,2,3]triazol-2-yl)phenyl)-3,4,5-trimethoxybenzamide] | > 30 | > 30 | > 100 | > 100 | > 100 | > 100 |  |  |  |  | 227 to 229 |  |
| CCC(=O)Nc1ccc(-n2nnc3cc(Cl)c(Cl)cc32)cc1 [1c] | > 20 | 20 | 54 |  |  | ≥ 100 |  |  |  |  |  |  |
| O=C(Nc1ccc(-n2nc3cc(Cl)c(Cl)cc3n2)cc1)NC1CCCCC1 [2n] | ≤ 5 | > 30 | 71 |  |  |  | > 7.5 | 4 | significant reduction of viral titer |  |  |  |
| COc1cc(C(=O)Nc2ccc(-n3nnc4cc(Cl)c(Cl)cc43)cc2)cc(OC)c1OC [1j] | > 30 | > 30 | > 100 |  |  |  |  |  |  |  |  |  |
| CCC(=O)N(C(=O)CC)c1ccc(-n2nc3cc(Cl)c(Cl)cc3n2)cc1 [2d] | > 30 | > 30 | 26 | ≥ 100 |  | 73 |  |  |  |  |  |  |
| O=C(Nc1ccc(-n2nnc3cc(Cl)c(Cl)cc32)cc1)c1ccc([N+](=O)[O-])cc1 [1h] | 21 | > 30 | 96 |  |  |  |  |  |  |  |  |  |
| CCCCNC(=O)Nc1ccc(-n2nc3cc(Cl)c(Cl)cc3n2)cc1 [2m] | > 30 | > 30 | > 100 | 95 |  |  |  |  |  |  |  |  |
| COc1ccc(C(=O)Nc2ccc(-n3nc4cc(Cl)c(Cl)cc4n3)cc2)cc1 [2i] | > 30 | > 30 | > 100 |  | ≥ 100 |  |  |  |  |  |  |  |
